Literature values as cited in US12324811B2, “Intranasal formulation” (CIPLA LIMITED, priority 2018, dated 2025).

Assays:
[1] = oral administration
[2] = intranasally administered, children and adults
[3] = active metabolite

Compound | drug reaching the bloodstream [1] [%] | onset of action [2] | contribution to biological activity of midazolam [3] [%]
Midazolam | 50 | about 10 minutes | 
OCc1ncc2n1-c1ccc(Cl)cc1C(c1ccccc1F)=NC2 [alpha1-hydroxymidazolam] |  |  | 10
